Laboratory results published in patent publication US5734077A, “Substituted 2,2-dimethyl-omega-phenoxyalkanoic acids and esters” (Adir ET Compagnie, priority 1995, dated 1998).
Like-named read-outs stand apart in the source and are kept apart here.

What was measured:
[1] = test system: human low density lipoproteins (LDLs); assay: protective activity against oxidation of human LDLs induced by copper sulphate (TBARS determination); format: biochemical; details: copper sulphate 5 μM, 3 hours at 37° C., read-out: IC50, protection against the oxidation of LDLs
Protocol: The dose-effect relationship of those compounds was compared with that of probucol and a soluble analogue of vitamin E, trolox.
The anti-oxidant activity of the compounds was measured according to the method of Wallin et al. (Analytical Biochemistry, 1993, 208, 10-15).
Human LDLs are incubated for 3 hours at 37° C. in the presence of an oxidising agent, copper sulphate at a concentration of 5 μM, and of the compound to be tested at concentrations ranging from 10^-8 M to 2.5×10^-6 M. A non-oxidised control (LDLs only) and an oxidised control (LDLs plus copper sulphate) are also included in each of the series of tests.
The products of the LDL oxidation reaction are quantified by the colorimetric determination of "thiobarbituric acid reactive substances" (TBARS).
The protective activity of the tested compounds is expressed by the IC50 value, which corresponds to the concentration of product required to inhibit by 50% the oxidation of LDLs observed in the absence of product. The IC50 value was calculated from the dose-response curve.

[2] = test system: plasma lipids (triglycerides, total cholesterol); assay: hypolipaemic activity in vivo in a diet-induced model of combined hyperlipaemia in the hamster; design: species or system Golden Syrian hamster; details: 200 mg/kg/day per os, 1 week; for change in vivo at 200 mg/kg: Mesocricetus auratus, po, 168 h, hamsters on lipid-rich diet, versus control group, bezafibrate: mean ± sem of five experiments; for hypocholesterolaemic effect compared with bezafibrate (in words) / triglyceride-lowering effectiveness compared with bezafibrate (in words): hamster, bezafibrate 200 mg/kg/day
Protocol: The hypolipaemic activity of certain representative compounds of the invention was evaluated in vivo in a diet-induced model of combined hyperlipaemia in the hamster.
Golden Syrian hamsters are given a diet rich in lipids (standard diet+0.5% cholesterol+10% cocoa oil) for 3 weeks before the beginning of treatment. That diet induces hypercholesterolaemia and hypertriglyceridaemia.
The products are prepared in tragacanth gum and are administered per os by forced gastric feeding for 1 week at a dose of 200 mg/kg/day. Each product is tested on a group of 6 animals. A placebo group (control) and a group of animals treated with a reference product (bezafibrate at a dose of 200 mg/kg/day) are included in each experiment.
At the end of the treatment, the animals are anaesthetised with ether. Blood is removed by abdominal puncture and the triglycerides and total cholesterol in the serums are determined. Five independent experiments were carried out in accordance with that protocol in order to evaluate the hypolipaemic effect of thirteen compounds of this invention.
The results are shown in Table B. The effect of the treatment is expressed as a percentage variation by comparison with the control group, calculated from the means of the absolute values of triglycerides and of total cholesterol. A negative value thus reflects a hypolipaemic effect of the treatment indicated. The values shown for bezafibrate represent the mean values (±sem) of five experiments.

[3] = read-out: Total cholesterol (% variation/control)
[4] = read-out: Triglycerides (% variation/control)

SMILES	IC50 [1] [µM]	change in vivo at 200 mg/kg [2, 3] [%]	change in vivo at 200 mg/kg [2, 4] [%]	hypocholesterolaemic effect compared with bezafibrate (in words) [2]	triglyceride-lowering effectiveness compared with bezafibrate (in words) [2]
CC(C)(CCCOc1ccc(OCCCSc2cc(C(C)(C)C)c(O)c(C(C)(C)C)c2)cc1)C(=O)O [Example 5, 2,2-dimethyl-5-{4-[3-(3,5-di-tert-butyl-4-hydroxyphenylthio)propyloxy]phenoxy}pentanoic acid]	0.55				
CC(C)(Oc1ccc(CCNC(=O)c2ccc(Cl)cc2)cc1)C(=O)O [Bezafibrate, bezafibrate, reference compound]		-48 ± 4	-46 ± 19		
CC(C)(CCCOc1cccc(CCOc2cc(C(C)(C)C)c(O)c(C(C)(C)C)c2)c1)C(=O)O [Example 13, 2,2-dimethyl-5-{3-[2-(3,5-di-tert-butyl-4-hydroxyphenoxy)ethyl]phenoxy}pentanoic acid]	0.3	-68	-84	hypocholesterolaemic effect at least as great as bezafibrate	statistically at least as effective as bezafibrate
Cc1c(C)c2c(c(C)c1O)CCC(C)(CCCCOc1ccc(OCCCC(C)(C)C(=O)O)cc1)O2 (racemic) [Example 18, R,S -2,2-dimethyl-5-{4-[4-(6-hydroxy-2,5,7,8-tetramethyl-3,4-dihydrobenzopyran-2-yl)butyloxy]phenoxy}pentanoic acid]	0.72	-61	-79		
CC(C)(CCCOc1ccc(CCCSc2cc(C(C)(C)C)c(O)c(C(C)(C)C)c2)cc1)C(=O)O [Example 3, 2,2-dimethyl-5-{4-[3-(3,5-di-tert-butyl-4-hydroxyphenylthio)propyl]phenoxy}pentanoic acid]	0.53	-77	-87	hypocholesterolaemic effect at least as great as bezafibrate	statistically at least as effective as bezafibrate
Cc1cc(OCCCOc2ccc(OCCCC(C)(C)C(=O)O)cc2)c(C)c(C)c1O [Example 11, 2,2-dimethyl-5-{4-[3-(4-hydroxy-2,3,5-trimethylphenoxy)propyloxy]phenoxy}pentanoic acid]	0.19	-55	-60		
Cc1cc(SCCc2cccc(OCCCC(C)(C)C(=O)O)c2)c(C)c(C)c1O [Example 7, 2,2-dimethyl-5-{3-[2-(4-hydroxy-2,3,5-trimethylphenylthio)ethyl]phenoxy}pentanoic acid]	0.068	-47	-83	hypocholesterolaemic effect at least as great as bezafibrate	statistically at least as effective as bezafibrate
CC(C)(CCCOc1ccc(OCCCOc2cc(C(C)(C)C)c(O)c(C(C)(C)C)c2)cc1)C(=O)O [Example 12, 2,2-dimethyl-5-{4-[3-(3,5-di-tert-butyl-4-hydroxyphenoxy)propyloxy]phenoxy}pentanoic acid]	0.64	-63	-84	hypocholesterolaemic effect at least as great as bezafibrate	statistically at least as effective as bezafibrate
CC(C)(CCCOc1cccc(CCCc2cc(C(C)(C)C)c(O)c(C(C)(C)C)c2)c1)C(=O)O [Example 20, 2,2-dimethyl-5-{3-[3-(4-hydroxy-3,5-di-tert-butylphenyl)propyl]phenoxy}pentanoic acid]	1.1	-58	-71		
CC(C)(Sc1cc(C(C)(C)C)c(O)c(C(C)(C)C)c1)Sc1cc(C(C)(C)C)c(O)c(C(C)(C)C)c1 [Probucol, probucol, reference compound]	5.8				
Cc1cc(OCCc2ccc(OCCCC(C)(C)C(=O)O)cc2)c(C)c(C)c1O [Example 9, 2,2-dimethyl-5-{4-[2-(4-hydroxy-2,3,5-trimethylphenoxy)ethyl]phenoxy}pentanoic acid]	0.2				
CC(C)(CCCOc1ccc(CCSc2cc(C(C)(C)C)c(O)c(C(C)(C)C)c2)cc1)C(=O)O [Example 2, 2,2-dimethyl-5-{4-[2-(3,5-di-tert-butyl-4-hydroxyphenylthio)ethyl]phenoxy}pentanoic acid]	0.21	-52	-82	hypocholesterolaemic effect at least as great as bezafibrate	statistically at least as effective as bezafibrate

Continued by falling IC50 [1], values first:

IC50 [1] [µM]	SMILES	change in vivo at 200 mg/kg [2, 3] [%]	change in vivo at 200 mg/kg [2, 4] [%]	hypocholesterolaemic effect compared with bezafibrate (in words) [2]	triglyceride-lowering effectiveness compared with bezafibrate (in words) [2]
1.6	Cc1c(C)c2c(c(C)c1O)CCC(C)(C(=O)O)O2 (centres unmarked) [Trolox, trolox, reference compound]				
0.96	Cc1c(C)c2c(c(C)c1O)CCC(C)(C=CCCOc1ccc(OCCCC(C)(C)C(=O)O)cc1)O2 (racemic) [Example 17, R,S-2,2-dimethyl-5-{4-[4-(6-hydroxy-2,5,7,8-tetramethyl-3,4-dihydrobenzopyran-2-yl)but-3-enyloxy]phenoxy}pentanoic acid]				
0.77	CC(C)(CCCOc1ccc(CCOc2cc(C(C)(C)C)c(O)c(C(C)(C)C)c2)cc1)C(=O)O [Example 16, 2,2-dimethyl-5-{4-[2-(4-hydroxy-3,5-di-tert-butylphenoxy)ethyl]phenoxy}pentanoic acid]	-66	-54		
0.68	Cc1c(C)c2c(c(C)c1O)CCC(C)(CCCc1cccc(OCCCC(C)(C)C(=O)O)c1)O2 (racemic) [Example 19, R,S-2,2-dimethyl-5-{3-[3-(6-hydroxy-2,5,7,8-tetramethyl-3,4-dihydrobenzopyran-2-yl)-propyl]phenoxy}pentanoic acid]				
0.46	Cc1cc(SCCCc2ccc(OCCCC(C)(C)C(=O)O)cc2)c(C)c(C)c1O [Example 4, 2,2-dimethyl-5-{4-[3-(4-hydroxy-2,3,5-trimethylphenylthio)propyl]phenoxy}pentanoic acid]	-48	-77		
0.42	CC(C)(CCCOc1ccc(CCSc2cc(C(C)(C)C)c(O)c(C(C)(C)C)c2)cc1)C(=O)O [Example 1, 2,2-Dimethyl-5-{4-[2-(3,5-di-tert-butyl-4-hydroxyphenylthio)ethyl]phenoxy}pentanoic acid]				
0.38	CC(C)(CCCOc1cccc(CCSc2cc(C(C)(C)C)c(O)c(C(C)(C)C)c2)c1)C(=O)O [Example 8, 2,2-dimethyl-5-{3-[2-(3,5-di-tert-butyl-4-hydroxyphenylthio)ethyl]phenoxy}pentanoic acid]	-59	-59		
0.24	CC(C)(CCCOc1ccc(CCCOc2cc(C(C)(C)C)c(O)c(C(C)(C)C)c2)cc1)C(=O)O [Example 10, 2,2-dimethyl-5-{4-[3-(3,5-di-tert-butyl-4-hydroxyphenoxy)propyl]phenoxy}pentanoic acid]				
0.17	Cc1cc(SCCCOc2ccc(OCCCC(C)(C)C(=O)O)cc2)c(C)c(C)c1O [Example 6, 2,2-dimethyl-5-{4-[3-(4-hydroxy-2,3,5-trimethylphenylthio)propyloxy]phenoxy}pentanoic acid]	-39	-59		
0.097	Cc1cc(OCCCc2ccc(OCCCC(C)(C)C(=O)O)cc2)c(C)c(C)c1O [Example 15, 2,2-dimethyl-5-{4-[3-(4-hydroxy-2,3,5-trimethylphenoxy)propyl]phenoxy}pentanoic acid]	-77	-93	hypocholesterolaemic effect at least as great as bezafibrate	statistically at least as effective as bezafibrate
0.088	Cc1cc(OCCc2cccc(OCCCC(C)(C)C(=O)O)c2)c(C)c(C)c1O [Example 14, 2,2-dimethyl-5-{3-[2-(4-hydroxy-2,3,5-trimethylphenoxy)ethyl]phenoxy}pentanoic acid]				
